Experimental findings from patent US10344060B2 (priority 2013, dated 2019) are described below.

The structures appear in SMILES notation.

In the test the target is hNav1.7 (Homo sapiens, UniProt Q15858). Kind of test: cell-based. Format: cell-based. The conditions noted are these: Table 12; PatchXpress, tonic block; read-out: PX hNav1.7 Tonic IC50.
Sequence of hNav1.7 (Q15858 whole entry): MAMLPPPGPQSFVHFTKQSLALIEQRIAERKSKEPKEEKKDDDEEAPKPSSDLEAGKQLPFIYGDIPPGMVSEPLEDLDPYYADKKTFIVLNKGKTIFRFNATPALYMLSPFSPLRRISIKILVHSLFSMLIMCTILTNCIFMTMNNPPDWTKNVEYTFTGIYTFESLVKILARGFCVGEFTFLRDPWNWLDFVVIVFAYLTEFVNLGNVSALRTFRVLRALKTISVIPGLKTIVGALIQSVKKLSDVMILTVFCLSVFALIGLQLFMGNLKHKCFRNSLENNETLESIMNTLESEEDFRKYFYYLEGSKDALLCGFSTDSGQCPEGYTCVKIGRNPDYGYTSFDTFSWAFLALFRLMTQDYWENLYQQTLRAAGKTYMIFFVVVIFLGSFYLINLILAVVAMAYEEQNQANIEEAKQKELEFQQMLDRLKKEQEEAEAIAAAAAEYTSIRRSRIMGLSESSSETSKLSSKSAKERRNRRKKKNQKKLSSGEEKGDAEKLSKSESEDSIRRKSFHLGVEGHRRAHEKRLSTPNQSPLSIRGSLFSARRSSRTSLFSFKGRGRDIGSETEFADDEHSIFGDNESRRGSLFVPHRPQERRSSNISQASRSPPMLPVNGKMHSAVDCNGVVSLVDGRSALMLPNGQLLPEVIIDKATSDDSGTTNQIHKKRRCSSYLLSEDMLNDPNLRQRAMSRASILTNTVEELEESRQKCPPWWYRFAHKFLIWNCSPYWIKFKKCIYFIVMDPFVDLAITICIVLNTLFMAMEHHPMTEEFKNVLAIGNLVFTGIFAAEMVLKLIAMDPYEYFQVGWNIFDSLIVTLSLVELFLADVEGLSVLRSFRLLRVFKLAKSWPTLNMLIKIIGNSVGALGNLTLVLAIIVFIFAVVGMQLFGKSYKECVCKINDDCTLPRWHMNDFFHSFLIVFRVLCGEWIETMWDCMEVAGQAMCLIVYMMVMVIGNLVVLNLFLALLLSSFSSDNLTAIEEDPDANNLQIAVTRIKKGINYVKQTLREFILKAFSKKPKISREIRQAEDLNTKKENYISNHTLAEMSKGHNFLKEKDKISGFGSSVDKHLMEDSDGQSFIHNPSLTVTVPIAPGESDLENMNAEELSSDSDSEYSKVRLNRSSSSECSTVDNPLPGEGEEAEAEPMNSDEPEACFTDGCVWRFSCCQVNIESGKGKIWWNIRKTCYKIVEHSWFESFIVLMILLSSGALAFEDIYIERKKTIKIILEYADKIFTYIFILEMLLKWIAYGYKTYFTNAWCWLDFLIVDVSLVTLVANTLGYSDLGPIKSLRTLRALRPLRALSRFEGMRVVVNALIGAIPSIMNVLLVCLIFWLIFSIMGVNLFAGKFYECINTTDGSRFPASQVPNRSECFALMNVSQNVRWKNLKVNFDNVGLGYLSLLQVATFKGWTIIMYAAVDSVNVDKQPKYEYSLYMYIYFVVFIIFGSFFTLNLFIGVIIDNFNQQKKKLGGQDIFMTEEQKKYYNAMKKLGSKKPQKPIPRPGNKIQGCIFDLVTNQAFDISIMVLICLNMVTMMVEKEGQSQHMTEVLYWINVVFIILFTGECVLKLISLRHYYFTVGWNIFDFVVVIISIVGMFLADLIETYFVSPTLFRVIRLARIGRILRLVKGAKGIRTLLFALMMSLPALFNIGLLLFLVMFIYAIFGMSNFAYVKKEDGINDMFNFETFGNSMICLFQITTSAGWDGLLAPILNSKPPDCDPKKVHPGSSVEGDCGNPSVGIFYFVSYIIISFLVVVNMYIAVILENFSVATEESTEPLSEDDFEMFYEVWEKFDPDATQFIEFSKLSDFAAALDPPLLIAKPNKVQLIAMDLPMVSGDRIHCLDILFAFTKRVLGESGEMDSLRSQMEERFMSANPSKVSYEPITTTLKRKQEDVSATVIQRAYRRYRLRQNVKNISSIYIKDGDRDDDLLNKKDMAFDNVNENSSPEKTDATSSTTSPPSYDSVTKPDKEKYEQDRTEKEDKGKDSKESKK
Usually IC50 stands for the concentration that inhibits the measured activity by half. For the compound `C#CC[C@H](N)C(=O)N[C@@H](Cc1ccc(O)cc1)C(=O)N[C@H]1CSSC[C@@H]2NC(=O)[C@@H]3CSSC[C@@H](C(=O)N[C@@H](CCCNC(=N)N)C(=O)N[C@@H](CCCCN)C(=O)N[C@@H](CCC(=O)O)C(=O)N[C@H](C(N)=O)[C@@H](C)CC)NC(=O)[C@H](Cc4c[nH]c5ccccc45)NC(=O)[C@H](CC(C)C)NC(=O)[C@H](CCC(N)=O)NC(=O)[C@H](CSSC[C@H](NC(=O)[C@H]([C@@H](C)O)NC(=O)[C@H](Cc4c[nH]c5ccccc45)NC(=O)[C@H](CCCC)NC(=O)[C@H](Cc4c[nH]c5ccccc45)NC(=O)[C@H](CCCCN)NC(=O)[C@H](CCC(N)=O)NC1=O)C(=O)N[C@@H](CC(=O)O)C(=O)N[C@@H](CO)C(=O)N[C@@H](CCCCN)C(=O)N[C@@H](CCCNC(=N)N)C(=O)N[C@@H](C)C(=O)N3)NC(=O)[C@H](CCCNC(=N)N)NC(=O)[C@H](CC(C)C)NC(=O)CNC(=O)[C@H](CCC(=O)O)NC2=O` [compound 804], the IC50 was 0.0353 µM.
With `C#CC[C@H](N)C(=O)N[C@@H](Cc1ccc(O)cc1)C(=O)N[C@H]1CSSC[C@@H]2NC(=O)[C@@H]3CSSC[C@@H](C(=O)N[C@@H](CCCNC(=N)N)C(=O)N[C@@H](CCCCN)C(=O)N[C@@H](CCC(=O)O)C(=O)N[C@H](C(N)=O)[C@@H](C)CC)NC(=O)[C@H](Cc4c[nH]c5ccccc45)NC(=O)[C@H](CC(C)C)NC(=O)[C@H](CCCCN)NC(=O)[C@H](CSSC[C@H](NC(=O)[C@H]([C@@H](C)O)NC(=O)[C@H](Cc4c[nH]c5ccccc45)NC(=O)[C@H](CCCC)NC(=O)[C@H](Cc4c[nH]c5ccccc45)NC(=O)[C@H](CCC(N)=O)NC(=O)[C@H](CCC(N)=O)NC1=O)C(=O)N[C@@H](CC(=O)O)C(=O)N[C@@H](CO)C(=O)N[C@@H](CCCCN)C(=O)N[C@@H](CCCNC(N)=O)C(=O)N[C@@H](C)C(=O)N3)NC(=O)[C@H](CCCNC(=N)N)NC(=O)[C@H](CC(C)C)NC(=O)CNC(=O)[C@H](CCC(=O)O)NC2=O` [compound 807] the figure was 0.0209 µM; with `C#CC[C@H](N)C(=O)N[C@@H](Cc1ccc(O)cc1)C(=O)N[C@H]1CSSC[C@@H]2NC(=O)[C@@H]3CSSC[C@@H](C(=O)N[C@@H](CCCNC(=N)N)C(=O)N[C@@H](CCCCN)C(=O)N[C@@H](CCC(=O)O)C(=O)N[C@H](C(N)=O)[C@@H](C)CC)NC(=O)[C@H](Cc4c[nH]c5ccccc45)NC(=O)[C@H](CC(C)C)NC(=O)[C@H](CCCCN)NC(=O)[C@H](CSSC[C@H](NC(=O)[C@H]([C@@H](C)O)NC(=O)[C@H](Cc4c[nH]c5ccccc45)NC(=O)[C@H](CCCC)NC(=O)[C@H](Cc4cccc5ccccc45)NC(=O)[C@H](CCCCN)NC(=O)[C@H](CCC(N)=O)NC1=O)C(=O)N[C@@H](CC(=O)O)C(=O)N[C@@H](CO)C(=O)N[C@@H](CCCCN)C(=O)N[C@@H](CCCNC(=N)N)C(=O)N[C@@H](C)C(=O)N3)NC(=O)[C@H](CCCNC(=N)N)NC(=O)[C@H](CC(C)C)NC(=O)CNC(=O)[C@H](CCC(=O)O)NC2=O` [compound 841], 0.0709 µM; with `C#CC[C@H](N)C(=O)N[C@@H](Cc1ccc(O)cc1)C(=O)N[C@H]1CSSC[C@@H]2NC(=O)[C@@H]3CSSC[C@@H](C(=O)N[C@@H](CCCNC(=N)N)C(=O)N[C@@H](CCCCN)C(=O)N[C@@H](CCC(=O)O)C(=O)N[C@H](C(N)=O)[C@@H](C)CC)NC(=O)[C@H](Cc4c[nH]c5ccccc45)NC(=O)[C@H](CC(C)C)NC(=O)[C@H](CCCCN)NC(=O)[C@H](CSSC[C@H](NC(=O)[C@H]([C@@H](C)O)NC(=O)[C@H](Cc4c[nH]c5ccccc45)NC(=O)[C@H](CCCC)NC(=O)[C@H](Cc4ccc5ccccc5c4)NC(=O)[C@H](CCCCN)NC(=O)[C@H](CCC(N)=O)NC1=O)C(=O)N[C@@H](CC(=O)O)C(=O)N[C@@H](CO)C(=O)N[C@@H](CCCCN)C(=O)N[C@@H](CCCNC(=N)N)C(=O)N[C@@H](C)C(=O)N3)NC(=O)[C@H](CCCNC(=N)N)NC(=O)[C@H](CC(C)C)NC(=O)CNC(=O)[C@H](CCC(=O)O)NC2=O` [compound 842], 0.0217 µM.
As for `C#CC[C@H](N)C(=O)N[C@@H](Cc1ccc(O)cc1)C(=O)N[C@H]1CSSC[C@@H]2NC(=O)[C@@H]3CSSC[C@@H](C(=O)N[C@@H](CCCNC(=N)N)C(=O)N[C@@H](CCCCN)C(=O)N[C@@H](CCC(=O)O)C(=O)N[C@H](C(N)=O)[C@@H](C)CC)NC(=O)[C@H](Cc4c[nH]c5ccccc45)NC(=O)[C@H](CC(C)C)NC(=O)[C@H](CCCCN)NC(=O)[C@H](CSSC[C@H](NC(=O)[C@H]([C@@H](C)O)NC(=O)[C@H](Cc4c[nH]c5ccccc45)NC(=O)[C@H](CCCC)NC(=O)[C@H](Cc4c[nH]c5ccc(Br)cc45)NC(=O)[C@H](CCCCN)NC(=O)[C@H](CCC(N)=O)NC1=O)C(=O)N[C@@H](CC(=O)O)C(=O)N[C@@H](CO)C(=O)N[C@@H](CCCCN)C(=O)N[C@@H](CCCNC(=N)N)C(=O)N[C@@H](C)C(=O)N3)NC(=O)[C@H](CCCNC(=N)N)NC(=O)[C@H](CC(C)C)NC(=O)CNC(=O)[C@H](CCC(=O)O)NC2=O` [compound 845], the IC50 was 0.0535 µM.
With `C#CC[C@H](N)C(=O)N[C@@H](Cc1ccc(O)cc1)C(=O)N[C@H]1CSSC[C@@H]2NC(=O)[C@@H]3CSSC[C@@H](C(=O)N[C@@H](CCCNC(=N)N)C(=O)N[C@@H](CCCCN)C(=O)N[C@@H](CCC(=O)O)C(=O)N[C@H](C(N)=O)[C@@H](C)CC)NC(=O)[C@H](Cc4c[nH]c5ccccc45)NC(=O)[C@H](CC(C)C)NC(=O)[C@H](CCCCN)NC(=O)[C@H](CSSC[C@H](NC(=O)[C@H]([C@@H](C)O)NC(=O)[C@H](Cc4cccc5ccccc45)NC(=O)[C@H](CCCC)NC(=O)[C@H](Cc4c[nH]c5ccccc45)NC(=O)[C@H](CCCCN)NC(=O)[C@H](CCC(N)=O)NC1=O)C(=O)N[C@@H](CC(=O)O)C(=O)N[C@@H](CO)C(=O)N[C@@H](CCCCN)C(=O)N[C@@H](CCCNC(=N)N)C(=O)N[C@@H](C)C(=O)N3)NC(=O)[C@H](CCCNC(=N)N)NC(=O)[C@H](CC(C)C)NC(=O)CNC(=O)[C@H](CCC(=O)O)NC2=O` [compound 846] the figure was 0.825 µM; with `C#CC[C@H](N)C(=O)N[C@@H](Cc1ccc(O)cc1)C(=O)N[C@H]1CSSC[C@@H]2NC(=O)[C@@H]3CSSC[C@@H](C(=O)N[C@@H](CCCNC(=N)N)C(=O)N[C@@H](CCCCN)C(=O)N[C@@H](CCC(=O)O)C(=O)N[C@H](C(N)=O)[C@@H](C)CC)NC(=O)[C@H](Cc4c[nH]c5ccccc45)NC(=O)[C@H](CC(C)C)NC(=O)[C@H](CCCCN)NC(=O)[C@H](CSSC[C@H](NC(=O)[C@H]([C@@H](C)O)NC(=O)[C@H](Cc4ccc5ccccc5c4)NC(=O)[C@H](CCCC)NC(=O)[C@H](Cc4c[nH]c5ccccc45)NC(=O)[C@H](CCCCN)NC(=O)[C@H](CCC(N)=O)NC1=O)C(=O)N[C@@H](CC(=O)O)C(=O)N[C@@H](CO)C(=O)N[C@@H](CCCCN)C(=O)N[C@@H](CCCNC(=N)N)C(=O)N[C@@H](C)C(=O)N3)NC(=O)[C@H](CCCNC(=N)N)NC(=O)[C@H](CC(C)C)NC(=O)CNC(=O)[C@H](CCC(=O)O)NC2=O` [compound 847], 0.471 µM; with `C#CC[C@H](N)C(=O)N[C@@H](Cc1ccc(O)cc1)C(=O)N[C@H]1CSSC[C@@H]2NC(=O)[C@@H]3CSSC[C@@H](C(=O)N[C@@H](CCCNC(=N)N)C(=O)N[C@@H](CCCCN)C(=O)N[C@@H](CCC(=O)O)C(=O)N[C@H](C(N)=O)[C@@H](C)CC)NC(=O)[C@H](Cc4c[nH]c5ccccc45)NC(=O)[C@H](CC(C)C)NC(=O)[C@H](CCCCN)NC(=O)[C@H](CSSC[C@H](NC(=O)[C@H]([C@@H](C)O)NC(=O)[C@H](Cc4c[nH]c5ccc(Br)cc45)NC(=O)[C@H](CCCC)NC(=O)[C@H](Cc4c[nH]c5ccccc45)NC(=O)[C@H](CCCCN)NC(=O)[C@H](CCC(N)=O)NC1=O)C(=O)N[C@@H](CC(=O)O)C(=O)N[C@@H](CO)C(=O)N[C@@H](CCCCN)C(=O)N[C@@H](CCCNC(=N)N)C(=O)N[C@@H](C)C(=O)N3)NC(=O)[C@H](CCCNC(=N)N)NC(=O)[C@H](CC(C)C)NC(=O)CNC(=O)[C@H](CCC(=O)O)NC2=O` [compound 850], 0.54 µM.
With `C#CC[C@H](N)C(=O)N[C@@H](Cc1ccc(O)cc1)C(=O)N[C@H]1CSSC[C@@H]2NC(=O)[C@@H]3CSSC[C@@H](C(=O)N[C@@H](CCCNC(=N)N)C(=O)N[C@@H](CCCCN)C(=O)N[C@@H](CCC(=O)O)C(=O)N[C@H](C(N)=O)[C@@H](C)CC)NC(=O)[C@H](Cc4cccc5ccccc45)NC(=O)[C@H](CC(C)C)NC(=O)[C@H](CCCCN)NC(=O)[C@H](CSSC[C@H](NC(=O)[C@H]([C@@H](C)O)NC(=O)[C@H](Cc4c[nH]c5ccccc45)NC(=O)[C@H](CCCC)NC(=O)[C@H](Cc4c[nH]c5ccccc45)NC(=O)[C@H](CCCCN)NC(=O)[C@H](CCC(N)=O)NC1=O)C(=O)N[C@@H](CC(=O)O)C(=O)N[C@@H](CO)C(=O)N[C@@H](CCCCN)C(=O)N[C@@H](CCCNC(=N)N)C(=O)N[C@@H](C)C(=O)N3)NC(=O)[C@H](CCCNC(=N)N)NC(=O)[C@H](CC(C)C)NC(=O)CNC(=O)[C@H](CCC(=O)O)NC2=O` [compound 851] the figure was 0.032 µM.
With `C#CC[C@H](N)C(=O)N[C@@H](Cc1ccc(O)cc1)C(=O)N[C@H]1CSSC[C@@H]2NC(=O)[C@@H]3CSSC[C@@H](C(=O)N[C@@H](CCCNC(=N)N)C(=O)N[C@@H](CCCCN)C(=O)N[C@@H](CCC(=O)O)C(=O)N[C@H](C(N)=O)[C@@H](C)CC)NC(=O)[C@H](Cc4ccc5ccccc5c4)NC(=O)[C@H](CC(C)C)NC(=O)[C@H](CCCCN)NC(=O)[C@H](CSSC[C@H](NC(=O)[C@H]([C@@H](C)O)NC(=O)[C@H](Cc4c[nH]c5ccccc45)NC(=O)[C@H](CCCC)NC(=O)[C@H](Cc4c[nH]c5ccccc45)NC(=O)[C@H](CCCCN)NC(=O)[C@H](CCC(N)=O)NC1=O)C(=O)N[C@@H](CC(=O)O)C(=O)N[C@@H](CO)C(=O)N[C@@H](CCCCN)C(=O)N[C@@H](CCCNC(=N)N)C(=O)N[C@@H](C)C(=O)N3)NC(=O)[C@H](CCCNC(=N)N)NC(=O)[C@H](CC(C)C)NC(=O)CNC(=O)[C@H](CCC(=O)O)NC2=O` [compound 852] the figure was 0.182 µM.
